Data set [1] deals with Aphidius rhopalosiphi. Put plainly: LR50; higher = less toxic. The settings on record: not reported; mortality.
Data set [2] deals with Typhlodromus pyri. As to the kind of experiment: LR50; higher = less toxic. The settings on record: not reported; mortality.
Data set [3] deals with Folsomia candida. The settings on record: chronic/long-term; duration: 28 days.
In data set [4] the test system is Rattus norvegicus.
For data set [5], the system named is Canidae. The settings on record: chronic; duration: 1 years; oral; Dog Other; organ weight.
The subject of data set [6] is Hypoaspis aculeifer. The note with it: chronic/long-term; duration: 14 days.
In data set [7] the test system is Apis mellifera. The settings on record: acute, mortality.
Data set [8] has as its system Bibionidae. The settings on record: chronic/long-term; duration: 28 days.
Data set [9] has as its system Lepomis macrochirus. The note with it: acute; duration: 96 hours; mortality.
Data set [10] concerns Oryctolagus sp. The settings on record: reproduction developmental; body weight.
Data set [11] deals with Ictalurus punctatus. The settings on record: acute; duration: 96 hours; mortality.
Data set [12] deals with Pontoscolex corethrurus.
In data set [13] the test system is Pimephales promelas. The note with it: chronic/long-term; duration: 33 days; growth.
Data set [14] concerns Colinus virginianus.

In brackets after ≈: the same amount, converted by molar mass.

By NOAEL is commonly meant the highest tested level that showed no adverse finding.

On to `CNC(=O)c1cc(C#N)cc(C)c1NC(=O)c1cc(Br)nn1-c1ncccc1Cl` [Cyantraniliprole], for which the LR50 in [1] is 0.102 g/ha; in data set [2], > 230 g/ha. The NOEC is 0.08 mg/kg in data set [3]; 1000 mg/kg in data set [6]; 0.01 mg/L in data set [8]; > 1000 mg/kg in data set [12] (chronic/long-term, duration: 56 days); 2.9 mg/L in data set [13]. Besides, the LD50 in [4] (acute, oral, mortality) was > 5000 mg/kg; in data set [7] (dermal), > 0.0934 µg/piece; in [7] (oral, unspecified) it was > 0.105 µg/piece; in [14] (acute, oral) it was > 2250 mg/kg. For the same molecule, the no-observed-adverse-effect level (NOAEL) was 1.2 mg/kg-day in [4] (reproduction developmental, organ weight); 1 mg/kg-day in data set [5]; 25 mg/kg-day in [10]; 93.2 mg/kg-day in data set [14] (reproduction developmental). In addition, the LC50 in data set [9] was 2.4 µg/mL (≈ 5.07 µM); in [11], > 10 µg/mL; in data set [12] (acute, duration: 14 days, mortality) it was > 1000 mg/kg; in data set [14] (acute, oral, diet) it was > 1340 mg/kg.

These data come from EPA's ToxValDB 9.5 (doi:10.2903/j.efsa.2014.3814).
